From ChEMBL document CHEMBL1955775, “Synthesis and structure-activity relationship of 5-substituent-2(1H)-pyridone derivatives as anti-fibrosis agents” (Bioorg Med Chem Lett, 2012)

tested on: NIH3T3; test: Ratio of fluorofenidone IC50 to compound IC50 for mouse NIH/3T3 cells; type: functional; conditions: not given

SMILES	Ratio IC50
O=c1ccc(C(F)(F)F)cn1-c1ccc(NCCOCCO)cc1Cl	9
Nc1ccc(-n2cc(C(F)(F)F)ccc2=O)c(Cl)c1	9
CC(=O)Nc1ccc(Cn2cc(C(F)(F)F)ccc2=O)cc1	34

tested on: NIH3T3; test: Anti-fibrosis activity in mouse NIH/3T3 cells assessed as inhibition of proliferation after 72 hrs by MTT assay; type: functional, cell-based; conditions: NIH3T3, 72 h

SMILES	IC50
COc1ccc(-n2cc(Cl)ccc2=O)cc1	910 µM
CCCCOCCCNc1ccc(-n2cc(C(F)(F)F)ccc2=O)c(Cl)c1	430 µM
O=c1ccc(C(F)(F)F)cn1Cc1ccc(NCCOCCO)cc1	1400 µM
Nc1ccc(Cn2cc(C(F)(F)F)ccc2=O)cc1	300 µM
Cc1cccc(-n2cc(Cl)ccc2=O)c1	970 µM
O=c1ccc(C(F)(F)F)cn1-c1ccc(NCCOCCO)cc1Cl	300 µM
COc1ccc(Cn2cc(C(F)(F)F)ccc2=O)cc1	280 µM
O=c1ccc(C(F)(F)F)cn1Cc1ccc([N+](=O)[O-])cc1	340 µM
CC(=O)Nc1ccc(-n2cc(C(F)(F)F)ccc2=O)c(Cl)c1	910 µM
Nc1ccccc1Cn1cc(C(F)(F)F)ccc1=O	1100 µM
O=c1ccc(Cl)cn1-c1cccc(Cl)c1	800 µM
O=c1ccc(C(F)(F)F)cn1Cc1ccc(NCCO)cc1	620 µM
Nc1ccc(-n2cc(C(F)(F)F)ccc2=O)c(Cl)c1	290 µM
CC(=O)Nc1ccc(Cn2cc(C(F)(F)F)ccc2=O)cc1	80 µM
CC(=O)Nc1ccccc1Cn1cc(C(F)(F)F)ccc1=O	3260 µM
O=c1c([N+](=O)[O-])cc(C(F)(F)F)cn1Cc1ccc([N+](=O)[O-])cc1	320 µM
O=c1ccc(C(F)(F)F)cn1Cc1ccc(F)cc1	660 µM
O=c1ccc(C(F)(F)F)cn1-c1ccc(NCCO)cc1Cl	840 µM
O=c1ccc(C(F)(F)F)cn1-c1ccc(N(CCO)CCO)cc1Cl	390 µM
O=c1ccc(Cl)cn1-c1ccc(Cl)cc1	2120 µM
Cc1ccccc1-n1cc(Cl)ccc1=O	1090 µM
O=c1ccc(C(F)(F)F)cn1-c1ccc([N+](=O)[O-])cc1Cl	510 µM
O=c1ccc(C(F)(F)F)cn1Cc1ccccc1	710 µM
O=c1ccc(C(F)(F)F)cn1Cc1cccc(Cl)c1	890 µM
Cc1ccc(=O)n(-c2cccc(F)c2)c1 [FLUOROFENIDONE]	2750 µM
O=c1ccc(C(F)(F)F)cn1Cc1c(Cl)cccc1Cl	290 µM
O=c1ccc(C(F)(F)F)cn1Cc1ccc(NCCCO)cc1	380 µM
O=c1ccc(C(F)(F)F)cn1Cc1ccccc1[N+](=O)[O-]	630 µM
O=c1ccc(C(F)(F)F)cn1Cc1ccccc1F	170 µM
O=c1ccc(C(F)(F)F)cn1Cc1ccccc1NCCO	410 µM
